{"source": "patent US8633019B2", "about": "“Methods for treating spinal muscular atrophy” (PTC Therapeutics, Inc., priority 2008, dated 2014)"}
{"system": "inclusion of exon 7 of SMN2 into mRNA transcribed from the SMN2-A minigene", "test": "Fold Activation: luciferase reporter, SMN2-A minigene construct versus SMN2-G minigene construct, in stably transfected HEK293H cells", "type": "cell-based, human", "settings": "ratio of First Activation using the SMN2-A construct divided by Second Activation using the SMN2-G construct", "excerpt": "In a specific embodiment, the first cell and the second cell are the same cell type. In some embodiments, the first cell and the second cell are the same cell type and are obtained from the same source or clone. In some embodiments, the first reporter gene and the second reporter gene are the same reporter gene. In other embodiments, the first reporter gene and second reporter gene are different reporter genes. A compound that increases the inclusion of exon 7 of SMN2 into mRNA transcribed from the SMN2 gene will result in a Fold Activation derived from a higher ratio of the First Activation:\n[formula] [formula] [formula] In some embodiments, both the amount and activity of the first and second fusion proteins are detected. Accordingly, as used herein, the Fold Activation for a compound that modulates the inclusion of exon 7 of SMN2 into mRNA transcribed from the SMN2 gene is a ratio of the First Activation divided by the Second Activation.\nThe HEK293H cell line stably transfected with the SMN2-A minigene construct was utilized in the HTS. HTS was performed by plating 10,000 cells in each well of a 384-well plate. Each 384-well plate contained 64 control wells used as an internal standard: 16 wells were used as a total control (no test compound, only compound solvent), 16 wells were used as reference standards representing background readings (high inhibitor concentration) and 32 wells were prepared to provide an 8-point dose response curve of puromycin as a non-specific standard control inhibitor. The remaining 320 wells contained individual test compounds. The cells were grown overnight in the presence of test compounds or controls at 37° C. in 5% CO2. After 24 hours, the amount of luminescence was determined using a ViewLux Imaging system (Perkin Elmer).\nUsing the SMN2-A minigene construct, a HTS was performed testing a compound library. The amount of the fusion protein expressed from the minigene construct was determined by measuring luciferase activity as described herein. […] Enhancers of fusion protein expression were defined as those compounds that increased luciferase activity by at least three standard deviations above the mean. Based on this analysis, test compounds of Formula (I) were identified as hits and were subsequently confirmed by testing the compounds under the same conditions as in the original HTS. To ensure that the increase in luciferase activity detected in the HTS was due to increased inclusion of exon 7 of SMN2 into mRNA transcripts from the SMN2-A minigene construct, each compound was tested in two different cell lines: the cell line, which was used in the original HTS (HEK293H containing the SMN2-A minigene construct), and a HEK293H cell line that contained the SMN2-G minigene construct.\nEach compound was tested at four concentrations: 15 μM, 3 μM, 0.6 μM, 0.12 μM.\nThe Fold Activation results are provided as a ratio of a First Activation using the SMN-2A construct divided by a Second Activation using the SMN-2G construct, wherein 1 star (*) represents active compounds with a fold increase ratio between 1.1-1.3; 2 stars (**) represent active compounds with a fold increase ratio between 1.3-2.0; 3 stars (***) represent active compounds with a fold increase ratio greater than 2.0."}
{"smiles": "O=C(O)c1ccc2nc(-c3ccccc3F)oc2c1", "note": "[Cpd 66, 2-(2-fluoro-phenyl)-benzooxazole-6-carboxylic acid]", "Activity (Fold Activation)": "*** (3 stars (***) represent active compounds with a fold increase ratio greater than 2.0)"}
{"smiles": "Cc1cc(-c2nc3ccc(C(=O)O)cc3o2)c(C)o1", "note": "[Cpd 67, 2-(2,5-dimethyl-furan-3-yl)-benzooxazole-6-carboxylic acid]", "Activity (Fold Activation)": "** (2 stars (**) represent active compounds with a fold increase ratio between 1.3-2.0)"}
{"smiles": "O=C(O)c1ccc2nc(-c3cccnc3)oc2c1", "note": "[Cpd 69, 2-pyridin-3-yl-benzooxazole-6-carboxylic acid]", "Activity (Fold Activation)": "* (1 star (*) represents active compounds with a fold increase ratio between 1.1-1.3)"}
{"smiles": "O=C(O)c1cccc(-c2nc3ccc(C(=O)N4CCCC4)cc3o2)c1", "note": "[Cpd 71, 3-[6-(pyrrolidine-1-carbonyl)-benzooxazol-2-yl]-benzoic acid]", "Activity (Fold Activation)": "** (2 stars (**) represent active compounds with a fold increase ratio between 1.3-2.0)"}
{"smiles": "NC(=O)c1cccc(-c2nc3ccc(NCCc4ccccc4)cc3o2)c1", "note": "[Cpd 73, 3-(6-phenethylamino-benzooxazol-2-yl)-benzamide]", "Activity (Fold Activation)": "* (1 star (*) represents active compounds with a fold increase ratio between 1.1-1.3)"}
{"smiles": "Cc1cc(-c2nc3cc(C(=O)O)ccc3o2)c(C)o1", "note": "[Cpd 77, 2-(2,5-dimethyl-furan-3-yl)-benzooxazole-5-carboxylic acid]", "Activity (Fold Activation)": "* (1 star (*) represents active compounds with a fold increase ratio between 1.1-1.3)"}
{"smiles": "CN1CCCN(c2ccc3nc(-c4cccc(C(=O)O)c4)oc3c2)CC1", "note": "[Cpd 81, 3-[6-(4-methyl-[1,4]diazepan-1-yl)-benzooxazol-2-yl]-benzoic acid]", "Activity (Fold Activation)": "* (1 star (*) represents active compounds with a fold increase ratio between 1.1-1.3)"}
{"smiles": "O=C(O)c1cccc(-c2nc3ccc(Oc4ccccc4)cc3o2)c1", "note": "[Cpd 82, 3-(6-phenoxy-benzooxazol-2-yl)-benzoic acid]", "Activity (Fold Activation)": "** (2 stars (**) represent active compounds with a fold increase ratio between 1.3-2.0)"}
{"smiles": "O=C(O)c1ccc2oc(-c3ccc(N4CCCC4)nc3)nc2c1", "note": "[Cpd 89, 2-(6-pyrrolidin-1-yl-pyridin-3-yl)-benzooxazole-5-carboxylic acid]", "Activity (Fold Activation)": "*** (3 stars (***) represent active compounds with a fold increase ratio greater than 2.0)"}
{"smiles": "O=C(O)c1ccc2oc(-c3ccc(N4CCOCC4)nc3)nc2c1", "note": "[Cpd 90, 2-(6-morpholin-4-yl-pyridin-3-yl)-benzooxazole-5-carboxylic acid]", "Activity (Fold Activation)": "** (2 stars (**) represent active compounds with a fold increase ratio between 1.3-2.0)"}
{"smiles": "O=C(O)c1ccc2oc(-c3ccc(N4CCCCC4)nc3)nc2c1", "note": "[Cpd 91, 2-(3,4,5,6-tetrahydro-2H-[1,2′]bipyridinyl-5′-yl)-benzooxazole-5-carboxylic acid]", "Activity (Fold Activation)": "** (2 stars (**) represent active compounds with a fold increase ratio between 1.3-2.0)"}
{"smiles": "O=C(O)c1ccc2nc(-c3ccc(N4CCC4)nc3)oc2c1", "note": "[Cpd 93, 2-(6-azetidin-1-yl-pyridin-3-yl)-benzooxazole-6-carboxylic acid]", "Activity (Fold Activation)": "** (2 stars (**) represent active compounds with a fold increase ratio between 1.3-2.0)"}
{"smiles": "O=C(O)c1ccc2oc(-c3ccc(OC(F)(F)F)cc3)nc2c1", "note": "[Cpd 100, 2-(4-trifluoromethoxy-phenyl)-benzooxazole-5-carboxylic acid]", "Activity (Fold Activation)": "** (2 stars (**) represent active compounds with a fold increase ratio between 1.3-2.0)"}
{"smiles": "CN(Cc1ccccc1)c1ccc2nc(-c3cccc(C(=O)O)c3)oc2c1", "note": "[Cpd 102, 3-[6-(benzyl-methyl-amino)-benzooxazol-2-yl]-benzoic acid]", "Activity (Fold Activation)": "** (2 stars (**) represent active compounds with a fold increase ratio between 1.3-2.0)"}
{"smiles": "O=C(O)c1ccc2oc(-c3cccc(OC(F)(F)F)c3)nc2c1", "note": "[Cpd 105, 2-(3-trifluoromethoxy-phenyl)-benzooxazole-5-carboxylic acid]", "Activity (Fold Activation)": "* (1 star (*) represents active compounds with a fold increase ratio between 1.1-1.3)"}
{"smiles": "NC(=O)c1cccc(-c2nc3ccc(Nc4ccccc4)cc3o2)c1", "note": "[Cpd 106, 3-(6-phenylamino-benzooxazol-2-yl)-benzamide]", "Activity (Fold Activation)": "* (1 star (*) represents active compounds with a fold increase ratio between 1.1-1.3)"}
{"smiles": "NC(=O)c1cccc(-c2nc3ccc(N4CCCCC4)cc3o2)c1", "note": "[Cpd 110, 3-(6-piperidin-1-yl-benzooxazol-2-yl)-benzamide]", "Activity (Fold Activation)": "* (1 star (*) represents active compounds with a fold increase ratio between 1.1-1.3)"}
{"smiles": "COc1ccc2nc(-c3cccc(C(N)=O)c3)oc2c1", "note": "[Cpd 111, 3-(6-methoxy-benzooxazol-2-yl)-benzamide]", "Activity (Fold Activation)": "** (2 stars (**) represent active compounds with a fold increase ratio between 1.3-2.0)"}
{"smiles": "Cc1ccc2nc(-c3cccc(C(N)=O)c3)oc2c1", "note": "[Cpd 112, 3-(6-methyl-benzooxazol-2-yl)-benzamide]", "Activity (Fold Activation)": "** (2 stars (**) represent active compounds with a fold increase ratio between 1.3-2.0)"}
{"smiles": "CC(=O)Nc1ccc2oc(-c3ccc(Br)c(C)c3)nc2c1", "note": "[Cpd 128, N-[2-(4-bromo-3-methyl-phenyl)-benzooxazol-5-yl]-acetamide]", "Activity (Fold Activation)": "*** (3 stars (***) represent active compounds with a fold increase ratio greater than 2.0)"}
